Tests used:
[1] = cited from earlier work
washed human platelets [2] = assay: Platelet flow cytometry assay (P-selectin, PAC-1); type: cell-based; details: for ADP-stimulated P-selectin surface expression / ADP-stimulated glycoprotein α2β3 (GP IIb/IIIa) activation: pre-incubation with the polyol, ADP 2 μM
Method: Antibody staining of washed platelets for flow cytometry was performed as described previously^41 with further information outlined in additional methods. […]
Washed platelets and antibody staining for flow cytometry was performed as described previously using sodium citrate (0.109 M) as anti-coagulant^51. Washed platelets were separated by centrifugation at 500×g for 10 min and re-suspended in modified Hank's buffered salt solution without PGE1. Final platelet suspensions (100 μL; 2×10^8 platelets/mL) were then pre-incubated with erythritol, glucose or 1,5-AHG (at indicated concentrations) for 30 min at 22° C. Platelets were then stimulated with 2 μM ADP for 10 min and incubated with PE conjugated anti-P-selectin (CD62P-PE, Catalogue #555524, BD PharMingen, San Diego, CA, USA; 2.5 μL/100 μL) or Fluorescein isothiocyanate (FITC) conjugated PAC1 (binds only to active conformation of GP IIb/IIIa, Catalogue #3 40507, BD PharMingen, San Diego, CA, USA; 5 μL/100 μL) or isotype control antibody (PE IgG isotype control, Catalogue #555749 or FITC IgM Isotype control, Catalogue #555583, BD PharMingen, San Diego, CA, USA) in the dark for 20 min. The platelet suspensions were then fixed with 100 μL of 2% paraformaldehyde. Data was acquired on a flow cytometer (FACS LSR Fortessa, BD Biosciences, Franklin Lakes, New Jersey, USA). Twenty thousand (20,000) events were collected. The data was analyzed with FACSDiva Software (v.9.0) (BD Biosciences). Platelets were gated to exclude doublets (FIG. 28) and the raw mean fluorescent intensity (MFI) of either P-selectin (CD62P) or PAC-1 was quantified.

washed human platelets [3] = assay: Intracellular calcium measurements in Fura 2-filled washed platelets; type: cell-based; details: for thrombin-evoked intracellular Ca2+ release: submaximal (0.02 U) thrombin, pre-incubation with the polyol
Method: Measurement of intracellular calcium release in washed platelets was performed as previously described.^41 Further details are provided in supplemental methods.
To isolate washed platelets for intracellular Ca^2+ measurements, PRP was prepared as described above. Next, 100 nM prostaglandin E1 (PGE-1, Catalogue #P5512, Sigma, St. Louis, MO, USA) was added to the PRP and centrifuged at 500×g for 20 min at 22° C. as previously described.^6 After a gentle wash in a modified phosphate buffer saline (NaCl (137 mM), KCl (2.7 mM), Na2HPO4 (12 mM), MgCl2 (1 mM), and glucose (5.5 mM), pH 7.4) with PGE-1 (100 nM), the platelet pellet was spun again at 500×g for 20 min. The platelet pellet was re-suspended in modified Hank's buffered salt solution (HBSS-BSA-glucose; NaCl (0.137 M), KCl (5.4 mM), Na2HPO4 (0.25 mM KH2PO4 (0.44 mM), CaCl2 (1.3 mM), MgSO4 (1.0 mM), NaHCO3 (4.2 mM), glucose (5 mM) and BSA (0.1%)) with 100 nM PGE-1 and incubated with Fura 2-AM ([…]) at 22° C. After 30 min of incubation, an additional centrifugation at 500×g for 30 min was performed to remove excess Fura 2-AM. After resuspension in modified Hank's buffered salt solution the platelet pellet was incubated with xylitol at the indicated concentrations or vehicle for 30 min at 22° C. Intracellular Ca^2+ release was initiated by submaximal concentration of thrombin (0.02 U/mL) and changes in intracellular Ca^2+ monitored via Fura 2-AM fluorescence using 340/380 nm dual-wavelength excitation and an emission of 510 nm.
Washed platelets for intracellular Ca^2+ measurements were prepared by adding 100 nM prostaglandin E1 (PGE-1, Catalogue #P5512, Sigma, St. Louis, MO, USA) to PRP and centrifugation at 500×g, 20 min at 22° C. as previously described^26,51. […] Intra-cellular calcium release was induced by submaximal concentration of thrombin (0.02 U/mL) and changes monitored via Fura 2-AM fluorescence using 340/380 nm dual-wavelength excitation and an emission of 510 nm.

OC[C@@H](O)[C@@H](O)CO [erythritol]
well tolerated daily dose ([1]; digestive tolerance): up to 1 g/kg | effect on blood sugar / insulin ([1]; in vivo): no short-term insulinemic or glycemic effects | metabolism and excretion upon ingestion ([1]; in vivo): poorly metabolized and mostly excreted in the urine | ADP-stimulated P-selectin surface expression (washed human platelets [2]): dose-dependent enhancement | ADP-stimulated glycoprotein α2β3 (GP IIb/IIIa) activation (washed human platelets [2]): dose-dependent enhancement | erythritol concentration eliciting significant stimulus-dependent enhancement in P-selectin surface expression (washed human platelets [2]; threshold, FIG. 17): 18 µM | erythritol concentration eliciting significant stimulus-dependent enhancement in activated GP IIbIIIa surface expression (washed human platelets [2]; threshold, FIG. 17): 4.5 µM | thrombin-evoked intracellular Ca2+ release (washed human platelets [3]): enhanced | erythritol concentration eliciting significant increase in stimulus-dependent (thrombin) intracellular calcium (washed human platelets [3]; threshold, FIG. 17): 45 µM

OC[C@@H](O)[C@H](O)[C@@H](O)CO [xylitol]
effect on blood sugar / insulin ([1]; in vivo): negligible impact | ADP-stimulated P-selectin surface expression (washed human platelets [2]): dose-dependent enhancement | ADP-stimulated glycoprotein α2β3 (GP IIb/IIIa) activation (washed human platelets [2]): dose-dependent enhancement | thrombin-evoked intracellular Ca2+ release (washed human platelets [3]): dose-dependently enhanced

— patent US20260219274A1, “POLYOL SWEETNERS AND CARDIOVASCULAR AND THROMBOTIC EVENT RISK” (THE CLEVELAND CLINIC FOUNDATION, priority 2023, published 2026)
